This experiment has as its target Beta-secretase 1 (Homo sapiens, UniProt P56817). Description: Time-Resolved FRET Assay: A homogeneous time-resolved FRET assay was used to determine IC50 values for inhibitors of the soluble human BACE1 catalytic domain. The assay monitored the increase of 620nm fluorescence that resulted from BACE1 cleavage of an APPswedish APPswe mutant peptide FRET substrate (QSY7-EISEVNLDAEFC-Europium-amide).

Beta-secretase 1, sequence (P56817 whole entry, the tested form may be a part): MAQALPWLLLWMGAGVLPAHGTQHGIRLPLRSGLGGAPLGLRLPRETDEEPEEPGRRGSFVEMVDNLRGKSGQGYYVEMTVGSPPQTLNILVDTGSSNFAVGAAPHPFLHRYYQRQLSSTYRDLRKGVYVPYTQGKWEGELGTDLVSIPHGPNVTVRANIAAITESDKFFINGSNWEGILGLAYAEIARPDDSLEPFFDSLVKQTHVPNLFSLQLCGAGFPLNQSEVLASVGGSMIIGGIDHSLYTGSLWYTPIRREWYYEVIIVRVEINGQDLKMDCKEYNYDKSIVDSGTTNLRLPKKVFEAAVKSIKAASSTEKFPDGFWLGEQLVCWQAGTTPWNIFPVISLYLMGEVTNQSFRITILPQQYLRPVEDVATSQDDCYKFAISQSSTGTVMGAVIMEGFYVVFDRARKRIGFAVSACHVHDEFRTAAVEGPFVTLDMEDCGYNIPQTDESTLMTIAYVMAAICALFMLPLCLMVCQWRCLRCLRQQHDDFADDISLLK

By IC50 is commonly meant the concentration needed to halve the response being measured. A higher IC50 goes with a need for much substance. As a reminder, the Ki is the equilibrium dissociation constant of an inhibitor or competing ligand from its target. In the case of `COc1nc(N2C[C@H]3C(=O)N(C)C(=N)N[C@@]3(c3cc(F)ccc3Cl)C2)nc(C)c1F`, the IC50 came out at 42 nM and the affinity corresponds to a Ki of 8.9 nM.

The record behind these values is ChEMBL document CHEMBL3638861, “Phenyl-substituted 2-imino-3-methyl pyrrolo pyrimidinone compounds as BACE-1 inhibitors, compositions, and their use” (2013).
